In PMC12175894 (Science Advances, 2025):
Changes are numbered by the printed parent chain. Where two headings read alike, the source gives them in different places.

Columns and labels:
[1] = target: orexin OX2 (Homo sapiens, UniProt O43614); experiment: Radioligand displacement, [3H]EMPA
[2] = target: 5-HT1AR + Gαi1 (Homo sapiens, UniProt P08908)
[3] = test system: 5-HT1AR + Gαi1
[4] = target: T1, 5-HT1AR F112^3.28W (Homo sapiens, UniProt P08908, F112W); experiment: Radioligand competition, displacement of [3H]WAY100635; assay type: binding
T1 sequence (P08908 1-422 F112W): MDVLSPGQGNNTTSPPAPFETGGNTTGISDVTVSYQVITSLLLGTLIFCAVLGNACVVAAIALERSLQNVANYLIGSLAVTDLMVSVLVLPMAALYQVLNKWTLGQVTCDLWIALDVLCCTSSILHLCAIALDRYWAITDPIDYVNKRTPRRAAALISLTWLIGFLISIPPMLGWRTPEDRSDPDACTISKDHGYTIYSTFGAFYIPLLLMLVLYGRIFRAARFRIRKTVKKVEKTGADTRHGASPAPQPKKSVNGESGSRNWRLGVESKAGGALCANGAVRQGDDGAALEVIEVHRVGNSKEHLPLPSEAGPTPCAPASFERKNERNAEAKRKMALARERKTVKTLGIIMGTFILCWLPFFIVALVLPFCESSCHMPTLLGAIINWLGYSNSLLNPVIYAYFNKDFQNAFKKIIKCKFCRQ

[5] = test system: male C56BL/6 mice; experiment: CFA-induced inflammatory pain model; assay type: in vivo, mouse
[6] = target: T2, 5-HT1AR (Homo sapiens, UniProt P08908); experiment: cell-based
T2 sequence (P08908 1-422): T1 sequence (P08908 1-422 F112W) with W112F

[7] = target: T2, 5-HT1AR; experiment: PathHunter β-arrestin 2 inhibition assay, stimulated with serotonin
[8] = target: neurotensin NTS1 (Homo sapiens, UniProt P30989); experiment: Radioligand displacement, [3H]NT(8-13)
[9] = target: T3, 5-HT6R (Homo sapiens, UniProt P50406); experiment: Radioligand competition, displacement of [3H]LSD; assay type: binding
T3 construct: host or cells: HEK293T, transient; membranes

[10] = target: T4, 5-HT1AR Y96^2.64A (Homo sapiens, UniProt P08908, Y96A); experiment: GloSensor inhibition of cAMP accumulation in HEK293AΔGs; assay type: cell-based; conditions: for Emax: read-out: Emax [% ± SEM], inhibition of cAMP accumulation
T4 sequence (P08908 1-422 Y96A): T1 sequence (P08908 1-422 F112W) with Y96A, W112F

[11] = target: α2CR (Homo sapiens, UniProt P18825); experiment: BRET Gαi1 activation
[12] = target: T2, 5-HT1AR; experiment: GloSensor cAMP assay in HEK293T cells; assay type: cell-based; set-up: host or cells: HEK293T, HEK293A, HEK293AΔGs, HEK293AΔGi/o, HEK293AΔARRB1/B2
[13] = target: T2, 5-HT1AR; experiment: Complementation-based β-arrestin 2 recruitment PathHunter assay; conditions: for Emax: relative to serotonin
[14] = target: dopamine D1 (Homo sapiens, UniProt P21728); experiment: Radioligand displacement, [3H]SCH23390
[15] = Metabolic stability with rat liver microsomes; assay type: in vitro ADME
[16] = target: T5, 5-HT1AR + Gαi2 (Homo sapiens, UniProt P08908); experiment: GloSensor cAMP in HEK293AΔGi/o co-transfected with Gαi2; assay type: cell-based
T5 construct: host or cells: HEK293AΔGi/o

[17] = target: T6, 5-HT1AR + GαoA (Homo sapiens, UniProt P08908); experiment: GloSensor cAMP in HEK293AΔGi/o co-transfected with GαoA; assay type: cell-based
T6 construct: host or cells: HEK293AΔGi/o

[18] = read-out: Emax, β-arrestin 2 recruitment, PathHunter, elevated GRK2
[19] = read-out: Emax, β-arrestin 2 recruitment, PathHunter, native GRK2

T3 sequence (P50406 whole entry): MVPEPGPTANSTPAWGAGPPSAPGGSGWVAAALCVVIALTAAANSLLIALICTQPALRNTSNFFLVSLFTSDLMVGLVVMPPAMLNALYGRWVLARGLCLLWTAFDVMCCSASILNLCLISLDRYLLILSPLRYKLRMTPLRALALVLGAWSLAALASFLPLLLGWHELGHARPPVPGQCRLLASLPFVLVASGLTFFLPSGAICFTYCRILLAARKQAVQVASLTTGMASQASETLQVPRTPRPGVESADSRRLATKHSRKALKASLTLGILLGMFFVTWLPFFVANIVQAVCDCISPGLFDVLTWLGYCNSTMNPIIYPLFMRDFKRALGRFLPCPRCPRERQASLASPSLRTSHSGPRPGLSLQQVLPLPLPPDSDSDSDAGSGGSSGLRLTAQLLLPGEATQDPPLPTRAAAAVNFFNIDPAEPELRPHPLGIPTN
T6 sequence (P08908 whole entry): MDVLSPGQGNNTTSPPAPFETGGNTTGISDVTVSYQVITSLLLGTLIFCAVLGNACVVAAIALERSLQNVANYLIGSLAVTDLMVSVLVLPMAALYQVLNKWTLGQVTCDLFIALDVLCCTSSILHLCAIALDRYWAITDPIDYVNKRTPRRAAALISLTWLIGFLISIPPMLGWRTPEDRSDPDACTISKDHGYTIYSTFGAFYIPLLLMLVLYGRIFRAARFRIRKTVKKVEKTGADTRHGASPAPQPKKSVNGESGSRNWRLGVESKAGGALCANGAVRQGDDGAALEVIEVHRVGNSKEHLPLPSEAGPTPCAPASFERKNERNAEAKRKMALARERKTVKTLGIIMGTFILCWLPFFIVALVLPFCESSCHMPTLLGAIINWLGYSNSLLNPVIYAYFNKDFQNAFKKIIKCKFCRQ
T6 sequence (P09471 2-354 partner limits assumed): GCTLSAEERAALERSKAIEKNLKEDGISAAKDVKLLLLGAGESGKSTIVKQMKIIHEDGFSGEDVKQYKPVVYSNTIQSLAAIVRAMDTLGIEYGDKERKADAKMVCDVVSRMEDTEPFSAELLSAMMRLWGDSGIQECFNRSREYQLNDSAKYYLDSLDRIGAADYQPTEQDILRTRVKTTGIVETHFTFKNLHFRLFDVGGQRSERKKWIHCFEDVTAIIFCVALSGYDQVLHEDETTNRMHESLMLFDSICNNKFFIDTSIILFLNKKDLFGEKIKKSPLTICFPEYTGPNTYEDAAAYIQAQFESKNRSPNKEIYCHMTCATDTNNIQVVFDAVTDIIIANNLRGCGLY
Sequence of dopamine D1 (P21728 whole entry): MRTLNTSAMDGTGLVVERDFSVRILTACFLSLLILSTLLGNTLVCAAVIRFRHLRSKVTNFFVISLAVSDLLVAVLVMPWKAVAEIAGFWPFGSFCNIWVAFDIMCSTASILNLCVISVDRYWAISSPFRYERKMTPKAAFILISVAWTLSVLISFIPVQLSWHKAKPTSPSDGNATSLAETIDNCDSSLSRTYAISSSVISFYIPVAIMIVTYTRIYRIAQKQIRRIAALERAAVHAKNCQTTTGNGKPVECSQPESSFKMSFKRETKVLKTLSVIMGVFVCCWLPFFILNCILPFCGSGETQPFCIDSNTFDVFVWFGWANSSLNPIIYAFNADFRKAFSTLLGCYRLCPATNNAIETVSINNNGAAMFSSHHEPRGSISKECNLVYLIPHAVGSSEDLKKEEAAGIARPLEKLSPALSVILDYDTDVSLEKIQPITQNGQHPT
Sequence of orexin OX2 (O43614 whole entry): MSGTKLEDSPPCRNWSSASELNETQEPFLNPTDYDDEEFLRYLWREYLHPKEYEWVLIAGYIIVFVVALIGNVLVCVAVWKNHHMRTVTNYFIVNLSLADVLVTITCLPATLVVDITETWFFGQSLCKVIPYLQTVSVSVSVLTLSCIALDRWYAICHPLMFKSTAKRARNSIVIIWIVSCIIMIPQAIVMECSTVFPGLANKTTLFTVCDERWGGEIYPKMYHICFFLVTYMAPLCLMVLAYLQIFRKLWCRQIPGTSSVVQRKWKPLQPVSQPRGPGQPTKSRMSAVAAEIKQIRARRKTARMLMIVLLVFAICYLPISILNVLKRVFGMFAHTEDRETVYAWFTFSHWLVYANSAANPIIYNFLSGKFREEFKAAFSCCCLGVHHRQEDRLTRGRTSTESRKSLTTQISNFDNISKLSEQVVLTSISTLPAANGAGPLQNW
Sequence of neurotensin NTS1 (P30989 whole entry): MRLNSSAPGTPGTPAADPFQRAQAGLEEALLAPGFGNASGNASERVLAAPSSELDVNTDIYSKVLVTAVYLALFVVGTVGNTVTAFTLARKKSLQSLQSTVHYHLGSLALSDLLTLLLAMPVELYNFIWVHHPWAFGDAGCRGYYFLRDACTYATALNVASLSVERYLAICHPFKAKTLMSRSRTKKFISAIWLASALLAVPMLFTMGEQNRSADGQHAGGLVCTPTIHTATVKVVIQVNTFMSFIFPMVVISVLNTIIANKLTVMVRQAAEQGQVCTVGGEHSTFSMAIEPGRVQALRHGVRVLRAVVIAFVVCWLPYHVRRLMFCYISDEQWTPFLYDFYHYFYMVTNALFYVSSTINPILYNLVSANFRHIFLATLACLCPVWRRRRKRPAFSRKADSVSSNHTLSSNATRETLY
T5 sequence (P08908 whole entry): as the sequence (P08908 whole entry) above
T5 sequence (P04899 2-355 partner limits assumed): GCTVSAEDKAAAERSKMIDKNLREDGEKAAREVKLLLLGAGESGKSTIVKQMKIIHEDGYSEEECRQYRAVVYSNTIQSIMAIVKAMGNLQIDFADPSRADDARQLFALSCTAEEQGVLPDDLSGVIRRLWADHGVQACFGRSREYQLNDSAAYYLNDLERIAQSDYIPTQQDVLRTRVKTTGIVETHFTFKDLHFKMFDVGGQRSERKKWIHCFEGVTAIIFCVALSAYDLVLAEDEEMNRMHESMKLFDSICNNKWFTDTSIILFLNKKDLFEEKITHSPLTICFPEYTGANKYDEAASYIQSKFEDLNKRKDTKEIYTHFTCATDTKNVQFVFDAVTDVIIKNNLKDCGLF
Sequence of α2CR (P18825 whole entry): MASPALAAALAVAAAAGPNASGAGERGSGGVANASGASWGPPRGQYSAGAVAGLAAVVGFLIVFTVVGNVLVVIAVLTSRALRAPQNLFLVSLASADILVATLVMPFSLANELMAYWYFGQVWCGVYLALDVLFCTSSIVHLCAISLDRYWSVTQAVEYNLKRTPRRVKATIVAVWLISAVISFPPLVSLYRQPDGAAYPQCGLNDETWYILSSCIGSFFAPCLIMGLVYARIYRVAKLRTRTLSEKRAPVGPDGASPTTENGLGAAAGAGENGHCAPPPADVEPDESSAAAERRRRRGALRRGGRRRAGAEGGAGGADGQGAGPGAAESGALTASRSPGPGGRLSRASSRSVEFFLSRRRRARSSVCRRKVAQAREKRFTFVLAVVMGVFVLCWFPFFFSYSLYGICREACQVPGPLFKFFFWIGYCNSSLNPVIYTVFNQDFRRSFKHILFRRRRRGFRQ
Sequence of 5-HT1AR + Gαi1 (Homo sapiens, UniProt P08908) (P08908 whole entry): as the sequence (P08908 whole entry) above
Sequence of 5-HT1AR + Gαi1 (Homo sapiens, UniProt P08908) (P63096 2-354 partner limits assumed): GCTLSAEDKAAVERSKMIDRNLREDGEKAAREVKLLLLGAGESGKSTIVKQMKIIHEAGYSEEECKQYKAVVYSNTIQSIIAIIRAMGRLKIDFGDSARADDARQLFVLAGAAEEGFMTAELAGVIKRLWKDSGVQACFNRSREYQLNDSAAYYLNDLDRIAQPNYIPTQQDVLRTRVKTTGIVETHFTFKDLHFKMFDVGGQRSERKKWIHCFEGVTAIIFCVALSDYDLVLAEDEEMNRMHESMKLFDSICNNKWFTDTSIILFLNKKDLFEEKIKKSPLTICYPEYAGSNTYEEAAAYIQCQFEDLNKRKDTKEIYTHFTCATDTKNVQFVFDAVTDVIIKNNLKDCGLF

COc1ccccc1OCCNCCCOc1ccc2c(c1)NC(=O)CO2 [ST171]
Ki ([1]; Ki [nM ± SD]): > 50000 nM | Ki ([1]; pKi): > 50100 nM | Emax [2]: 68 ± 3% | Emax [3]: 57 to 80% | Ki ([4]; 5-HT1AR F112W, HEK 293T membranes, read-out: Ki [nM ± SEM]): 0.16 nM | mechanical thresholds of the injured hind paw, CFA model ([5]; 10 mg/kg intraperitoneal): significantly increased the mechanical thresholds | EC50 [6]: 1.6 nM | IC50 [7]: 3.9 ± 0.5 nM | Ki ([8]; Ki [nM ± SD]): > 50000 nM | Ki ([8]; pKi): > 50100 nM | Ki ([9]; 5-HT6, read-out: pKi (converted)): 3080 nM | Ki ([9]; 5-HT6R, HEK 293T membranes, read-out: Ki [nM ± SEM]): 3300 ± 300 nM | EC50 ([10]; HEK293AΔGs, Y96A, read-out: EC50 [nM ± SEM], inhibition of cAMP accumulation): 14 ± 3.5 nM | Emax [10]: 76 ± 2% | intrinsic activity [11]: devoid of intrinsic activity | EC50 ([12]; HEK293T, GloSensor; read-out: EC50 left [nM±SEM], inhibition of cAMP accumulation): 0.9 ± 0.2 nM | Emax ([12]; HEK-293T, read-out: Emax [%±SEM], inhibition of cAMP accumulation): 100 ± 3% | EC50 [13]: 5.5 ± 1.4 nM | Emax [13, 18]: 15% | Emax [13, 19]: < 5% | Ki ([14]; Ki [nM ± SD]): 260 ± 170 nM | Ki ([14]; pKi): 209 nM | intact substrate remaining ([15]; after 1 h incubation): more than 70% | intact substrate remaining ([15]; after 3 h incubation): > 45% | Emax [16]: 57 ± 7% | EC50 ([16]; HEK293AΔGi/o + Gαi2, read-out: EC50 [nM ± SEM], inhibition of cAMP accumulation): 4.4 ± 1 nM | Emax [17]: 100% | EC50 ([17]; HEK293AΔGi/o + GαoA, read-out: EC50 [nM ± SEM], inhibition of cAMP accumulation): 4.1 ± 1 nM

Cc1ccc(CNCC2(F)CCN(C(=O)c3ccc(F)c(Cl)c3)CC2)nc1 [befiradol, reference compound]
decrease in the binding affinity upon mutation of F112^3.28 to tryptophan ([4]; F112W vs WT): 16 fold | mechanical sensitivity, CFA model ([5]; nonsedating dose 1 mg/kg): reduced the mechanical sensitivity | Ki [9]: > 50000 nM | Emax [10]: 104 ± 5% | Esat [%±SEM] ([12]; HEK293T, GloSensor): 71 ± 6% | Emax ([12]; HEK-293T; read-out: Emax [%±SEM], inhibition of cAMP accumulation): 111 ± 6% | increase in efficacy with elevated vs native GRK2 ([13]; PathHunter β-arrestin 2): approximately 30% | increase of potency with elevated vs native GRK2 ([13]; PathHunter β-arrestin 2): 4 fold | Emax [13, 18]: 96 ± 3% | Emax [13, 19]: 67% | Emax [17]: 107 ± 3%
